Results on six compounds are retold here after patent publication EP4790046A1, “NOVEL COMPOUND DERIVED FROM MYRISTICA FRAGRANS, AND ANTICANCER COMPOSITION COMPRISING SAME” (Korea Institute of Science and Technology, priority 2023, dated 2025).

One data set concerns AGS. In words: alamarBlue cell viability (survival rate, IC50), AGS. The data set is classed as cell-based. Conditions: AGS (gastric cancer); for viability at 10 µM: read-out: Cancer cell line survival rate (%). An excerpt:
(§1) A p-value < 0.05 was considered statistically significant.
On the technique in general: The colour change of resazurin is a common sign of viable cells or microbes.

A further data set relates to 23132/87. In words: alamarBlue cell viability (survival rate, IC50), 23132/87. The data set is classed as cell-based. The conditions noted are these: 23132/87 (gastric cancer); for viability at 10 µM: read-out: Cancer cell line survival rate (%).
Text: as §1

A further data set deals with SNU-719. In words: alamarBlue cell viability (survival rate, IC50), SNU-719. The data set is classed as cell-based. Conditions: for viability at 10 µM: read-out: Cancer cell line survival rate (%).
Text: as §1

In a further data set the test system is SNU-81. The data set is described as follows: alamarBlue cell viability (survival rate, IC50), SNU-81. The data set is classed as cell-based. The conditions noted are these: for viability at 10 µM: read-out: Cancer cell line survival rate (%).
Text: as §1

In a further data set the test system is SNU-C5. In words: alamarBlue cell viability (survival rate, IC50), SNU-C5. Conditions: for viability at 10 µM: read-out: Cancer cell line survival rate (%). The data set is classed as cell-based.
Text: as §1

A further data set has as its system SW48. The data set is described as follows: alamarBlue cell viability (survival rate, IC50), SW48. The data set is classed as cell-based. Conditions: SW48 (colorectal cancer); for viability at 10 µM: read-out: Cancer cell line survival rate (%).
Text: as §1

The test system of another data set is SNU201. In words: alamarBlue cell viability (survival rate), SNU201. The data set is classed as cell-based. Conditions: SNU201 (glioblastoma), compound 10 µM, 48 hours; for viability at 10 µM: read-out: Cancer cell line survival rate (%).
Text: as §1

The next data set deals with SNU466. In words: alamarBlue cell viability (survival rate), SNU466. The data set is classed as cell-based. Conditions: SNU466 (glioblastoma), compound 10 µM, 48 hours; for viability at 10 µM: read-out: Cancer cell line survival rate (%).
Text: as §1

A further data set relates to HepG2. In words: alamarBlue cell viability (survival rate), HepG2. The data set is classed as cell-based. The conditions noted are these: HepG2 (liver cancer), compound 10 µM, 48 hours; for viability at 10 µM: Homo sapiens, read-out: Cancer cell line survival rate (%).
Text: as §1

The subject of a further data set is MiaPaCa-2. The data set is described as follows: alamarBlue cell viability (survival rate), MiaPaCa-2. The data set is classed as cell-based. The conditions noted are these: MiaPaCa-2 (pancreatic cancer), compound 10 µM, 48 hours; for viability at 10 µM: Homo sapiens, MIA PaCa-2, read-out: Cancer cell line survival rate (%).
Text: as §1

Data set [1] has as its system various cancer cell lines. The data set is described as follows: alamarBlue cell viability, statements across the cell line panel. Conditions: for anticancer activity: various cancer cell lines.
Procedure: AGS, SW48, HepG2, and MiaPaCa-2 was purchased from ATCC (American Type Culture Collection, USA), SNU cell lines from the Korean Cell Line Bank (KCLB, Korea), and 23132/87 from the Leibniz Institute DSMZ - German Collection of Microorganisms and Cell Cultures GmbH (DSMZ, Germany). All cell lines were cultured in RPMI-1640 medium (HyClone, USA) supplemented with 10% FBS (Gibco, USA) and 1% penicillin-streptomycin (HyClone, USA) under conditions of 5% CO2, 37°C.
Cells were seeded at a density of 5 × 10^3cells/well in a 96-well plate for 24 hours, then treated with the compound at an appropriate concentration (10 µM) for 48 hours. After treatment, alamarBlue reagent was added at a volume ratio of 1/10 of the treatment volume and incubated for 4 hours in a 37°C cell incubator (protected from direct light). Cell viability was then determined by measuring absorbance values at 570 nm and 600 nm using a microplate reader. The anticancer effects of candidate compounds were evaluated by assessing the cell viability (%) of cells treated at specific concentrations and the half-maximal inhibitory concentration (IC50) of each natural product. Doxorubicin and oxaliplatin were used as positive controls for gastric and colorectal cancer, respectively.
Statistical analysis was performed using R software (version 4.2.2) (R Core Team). Differences between groups were assessed using student's t-test or 1-way ANOVA followed by post-hoc Tukey HSD test. A p-value < 0.05 was considered statistically significant.
Further, to measure the IC50 values against six cancer cell lines.
Where [2] appears, read: Homo sapiens, compound 10 µM, 48 hours.
The mark [3] stands for this setting: SNU-719 (gastric cancer), compound 10 µM, 48 hours.
Setting [4] is: SNU-81 (colorectal cancer), compound 10 µM, 48 hours.
Setting [5] is: SNU-C5 (colorectal cancer), compound 10 µM, 48 hours.

In the case of `C=CCc1cc(OC)c(O[C@@H](C)[C@H](Oc2cc(CCCCCCCCC(=O)c3c(O)cccc3O)ccc2O)c2ccc(O)c(OC)c2)c(OC)c1` [Compound 10, Myricone K], the viability at 10 µM in the data set with AGS (setting [2]) worked out at 4.14%; in the data set with 23132/87 (compound 10 µM, 48 hours) it was 2.77%; in the data set with SNU-719 (setting [3]) it was 1.85%; with SNU-81 (setting [4]), 16.1%; with SNU-C5 (setting [5]) it was 4.94%; in the data set with SW48 (setting [2]), 2.67%. Moreover, the viability at 10 µM in the data set with SNU201 turned out to be 3.28%; with SNU466, 0.6%; with HepG2, 8.7%; in the data set with MiaPaCa-2, 4.3%. In addition, the anticancer activity result in data set [1] was “high anticancer activity”.
Turning to `C=CCc1cc(OC)c(O[C@H](C)[C@@H](c2ccc(O)c(OC)c2)c2ccc(O)c(C(=O)CCCCCCCCc3ccc(O)cc3)c2O)c(OC)c1` [Compound 4, Myricone D], the “Cancer cell line survival rate (%)” value with AGS (compound 10 µM, 48 hours) turned out to be 10.15%; with 23132/87 (compound 10 µM, 48 hours) it was 8.41%; in the data set with SNU-719 (setting [3]), 10.19%; in the data set with SNU-81 (setting [4]), 115.60%; in the data set on SNU-C5 (setting [5]), 12.41%; in the data set on SW48 (compound 10 µM, 48 hours), 2.61%. Further, the “Cancer cell line survival rate (%)” value with SNU201 was determined as 2.44%; in the data set with SNU466, 1.74%; in the data set with HepG2, 1.84%; in the data set with MiaPaCa-2, 3.54%. Further, the IC50 in the data set with AGS (Homo sapiens, 2.5-40 µM, positive control = doxorubicin) was determined as 7.27 µM; with 23132/87 (2.5-40 µM, positive control = doxorubicin), 4.14 µM; in the data set with SNU-719 (SNU719 (gastric cancer), 2.5-40 µM, positive control = doxorubicin) it was 5.01 µM; in the data set on SNU-81 (SNU81 (colorectal cancer), 2.5-40 µM, positive control = oxaliplatin, read-out: IC50), 16.9 µM; in the data set on SNU-C5 (SNUC5 (colorectal cancer), 2.5-40 µM, positive control = oxaliplatin, read-out: IC50), 5.57 µM; in the data set with SW48 (Homo sapiens, 2.5-40 µM, positive control = oxaliplatin), 5.73 µM. Also, the anticancer activity result in data set [1] was “high anticancer activity”.
On to `COc1cc([C@H]2Oc3c(OC)cc(/C=C/Cc4cc(O)c(O)cc4CCCCCCCCC(=O)c4c(O)cccc4O)cc3[C@@H]2C)ccc1O` [Compound 17, Myricone Q], for which the viability at 10 µM in the data set with AGS (setting [2]) came out at 80.5%; in the data set on 23132/87 (compound 10 µM, 48 hours), 85%; in the data set with SNU-719 (setting [3]) it was 54.9%; in the data set on SNU-81 (setting [4]), 113%; in the data set with SNU-C5 (setting [5]) it was 58.5%; in the data set on SW48 (setting [2]), 60.2%. Further, the viability at 10 µM in the data set on SNU201 stood at 105%; in the data set on SNU466, 45.6%; in the data set on HepG2, 108%; in the data set on MiaPaCa-2, 59.9%. In addition, the anticancer activity result in data set [1] is “high anticancer activity”.
On to `C=CCc1cc(OC)c(O[C@H](C)[C@H](Oc2cc(CCCCCCCCC(=O)c3c(O)cccc3O)ccc2O)c2ccc(O)c(OC)c2)c(OC)c1` [Compound 11, Myricone L], for which the viability at 10 µM was determined as 20.3% with AGS (setting [2]); 19% with 23132/87 (compound 10 µM, 48 hours); 12.5% with SNU-719 (setting [3]); 92.5% with SNU-81 (setting [4]); 13.4% with SNU-C5 (setting [5]); 5.57% in the data set on SW48 (setting [2]). The viability at 10 µM in the data set on SNU201 was determined as 32.8%; in the data set with SNU466 it was 0.52%; in the data set with HepG2, 25.3%; in the data set on MiaPaCa-2 it was 22%. Further, the cytotoxic effects result in [1] (gastric cancer cell lines and colorectal cancer cell lines, 10 µM, 48 hours) is recorded as “excellent cytotoxic effects”. In addition, the anticancer activity result in [1] was “high anticancer activity”.
With `COc1ccc(/C=C/Cc2ccc(O)c(C(=O)CCCCCCCCc3ccc(O)c(O)c3)c2O)cc1OC` [Compound 21, Myricone Z], the viability at 10 µM worked out at 6.86% in the data set on AGS (setting [2]); 2.4% in the data set on 23132/87 (compound 10 µM, 48 hours); 4.6% with SNU-719 (setting [3]); 33.6% in the data set with SNU-81 (setting [4]); 6.53% with SNU-C5 (setting [5]); 3.51% in the data set on SW48 (setting [2]). In addition, the viability at 10 µM with SNU201 is 67.8%; in the data set with SNU466, 0.95%; with HepG2 it was 6.05%; in the data set with MiaPaCa-2, 7.58%. Further, the anticancer activity entry in data set [1] is “high anticancer activity”.
`C=CCc1cc(OC)c(OC(C)C(Oc2cccc(O)c2C(=O)CCCCCCCCc2ccc(O)cc2)c2ccc(O)c(OC)c2)c(OC)c1` (stereo not shown) [Compound 12, Myricone M]: the viability at 10 µM stood at 7.89% in the data set with AGS (setting [2]); 0.67% with 23132/87 (compound 10 µM, 48 hours); 0.53% with SNU-719 (setting [3]); 2.27% with SNU-81 (setting [4]); 1.98% with SNU-C5 (setting [5]); 2.52% in the data set with SW48 (setting [2]). Further, the viability at 10 µM in the data set with SNU201 amounted to 0.75%; in the data set with SNU466 it was 0.64%; with HepG2 it was 1.23%; in the data set on MiaPaCa-2 it was 3.46%. Further, in data set [1], the anticancer activity result was “high anticancer activity”.

In general, IC50 refers to the concentration that gives 50% inhibition.
